Structures can show the parent of a compound that is named as a salt.

The target of the assay is T1, VLA-4 integrins on human U937 cells (interaction between VCAM-1 and VLA-4) (Homo sapiens, UniProt P05556+P13612).
T1 construct: the VLA-4 integrins, are offered in their natural form as surface molecules on human U937 cells; host or cells: U937 cells (VLA-4, endogenous); the partner hVCAM-1(1-3)-IgG came from the supernatant of transfected COS cells (ATCC CRL1651)
T1 sequence (P13612 34-1032): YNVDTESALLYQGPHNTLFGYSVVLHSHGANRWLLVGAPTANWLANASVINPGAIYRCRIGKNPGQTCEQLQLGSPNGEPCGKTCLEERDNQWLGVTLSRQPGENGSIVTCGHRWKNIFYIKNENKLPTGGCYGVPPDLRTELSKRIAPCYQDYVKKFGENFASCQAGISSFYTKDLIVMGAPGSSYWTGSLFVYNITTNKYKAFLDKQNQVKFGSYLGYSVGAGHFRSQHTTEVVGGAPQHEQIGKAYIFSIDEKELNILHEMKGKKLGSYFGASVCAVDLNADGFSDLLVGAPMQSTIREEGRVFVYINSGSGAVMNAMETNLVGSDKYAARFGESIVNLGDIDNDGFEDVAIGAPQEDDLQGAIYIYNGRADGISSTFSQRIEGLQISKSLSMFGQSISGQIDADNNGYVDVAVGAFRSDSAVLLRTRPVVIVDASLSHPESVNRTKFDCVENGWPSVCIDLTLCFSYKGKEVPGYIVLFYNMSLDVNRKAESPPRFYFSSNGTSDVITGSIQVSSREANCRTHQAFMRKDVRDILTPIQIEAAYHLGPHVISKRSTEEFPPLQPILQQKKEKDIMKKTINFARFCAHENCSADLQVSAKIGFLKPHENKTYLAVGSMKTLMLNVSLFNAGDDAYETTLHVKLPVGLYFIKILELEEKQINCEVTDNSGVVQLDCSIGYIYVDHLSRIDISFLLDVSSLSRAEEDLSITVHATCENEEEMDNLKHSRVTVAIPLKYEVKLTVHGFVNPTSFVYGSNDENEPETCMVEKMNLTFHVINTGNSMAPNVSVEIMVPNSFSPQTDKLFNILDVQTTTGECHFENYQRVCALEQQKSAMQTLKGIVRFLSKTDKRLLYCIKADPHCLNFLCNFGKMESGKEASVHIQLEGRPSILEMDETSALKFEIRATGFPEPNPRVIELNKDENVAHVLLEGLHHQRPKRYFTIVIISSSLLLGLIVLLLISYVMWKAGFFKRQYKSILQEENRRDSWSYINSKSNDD
T1 sequence (P05556 21-798): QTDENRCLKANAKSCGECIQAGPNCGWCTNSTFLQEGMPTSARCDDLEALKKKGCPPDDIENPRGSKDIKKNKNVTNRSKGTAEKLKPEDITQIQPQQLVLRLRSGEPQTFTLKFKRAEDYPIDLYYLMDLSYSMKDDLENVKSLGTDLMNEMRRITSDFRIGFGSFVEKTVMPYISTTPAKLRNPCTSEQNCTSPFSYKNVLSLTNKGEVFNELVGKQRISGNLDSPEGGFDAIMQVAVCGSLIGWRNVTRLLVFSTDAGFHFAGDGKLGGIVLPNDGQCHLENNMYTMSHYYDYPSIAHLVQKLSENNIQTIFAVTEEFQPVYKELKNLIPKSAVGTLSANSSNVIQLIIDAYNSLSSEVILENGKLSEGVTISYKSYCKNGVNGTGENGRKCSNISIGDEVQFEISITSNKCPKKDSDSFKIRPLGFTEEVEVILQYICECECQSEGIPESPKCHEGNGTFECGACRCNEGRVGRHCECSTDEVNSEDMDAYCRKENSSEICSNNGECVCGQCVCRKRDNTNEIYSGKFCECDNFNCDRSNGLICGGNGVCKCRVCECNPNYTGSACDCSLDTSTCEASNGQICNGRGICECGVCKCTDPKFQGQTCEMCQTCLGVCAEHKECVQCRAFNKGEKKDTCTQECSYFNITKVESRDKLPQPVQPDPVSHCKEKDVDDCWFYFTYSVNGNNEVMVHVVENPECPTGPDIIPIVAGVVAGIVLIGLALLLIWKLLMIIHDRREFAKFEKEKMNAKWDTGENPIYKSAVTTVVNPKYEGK
In words: U937/VCAM-1 cell adhesion test (adhesion of U937 cells to hVCAM-1(1-3)-IgG). Format: cell-based. The settings on record: concentration leading to 50% inhibition of adhesion. The source says: As a test method for the activity of the compounds of the formula I on the interaction between VCAM-1 and VLA-4, an assay which is specific for this interaction is used. The cellular binding components, i.e. the VLA-4 integrins, are offered in their natural form as surface molecules on human U937 cells (ATCC CRL 1593) which belong to the group of leucocytes. As specific binding components, recombinant soluble fusion proteins prepared by genetic engineering and consisting of the extracytoplasmic domains of human VCAM-1 and the constant region of a human immunoglobulin of the subclass IgG1 are used.
Assay for the Measurement of the Adhesion of U937 Cells (ATCC CRL 1593) to hVCAM-1 (1-3)-IgG
1. Preparation of Human VCAM-1(1-3)-IgG and Human CD4-IgG
A genetic construct for the expression of the extracellular domains of human VCAM-1 was employed, associated with the genetic sequence of the heavy chain of human immunoglobulin IgG1 (hinge, CH2 and CH3 regions), from Dr. Brian Seed, Massachusetts General Hospital, Boston, USA. The soluble fusion protein hVCAM-1(1-3)-IgG contained the three amino-terminal extracellular immunoglobulin-like domains of human VCAM-1 (Damle and Aruffo, Proc. Natl. Acad. Sci. USA 1991, 88, 6403). CD4-IgG (Zettlmeissl et al, DNA and Cell Biology 1990, 9, 347) served as a fusion protein for negative controls. The recombinant proteins were expressed as soluble proteins after DEAE/dextran-mediated DNA-transfection in COS cells (ATCC CRL1651) according to standard procedures (Ausubel et al., Current protocols in molecular biology, John Wiley & Sons, Inc., 1994).
2. Assay for Measurement of the Adhesion of U937 Cells to hVCAM-1(1-3)-IgG
2.1 96-well microtiter test plates (Nunc Maxisorb) were incubated at room temperature for 1 hour with 100 μl/well of a goat-anti-human IgG antibody solution (10 μg/ml in 50 mM tris, pH 9.5). After removing the antibody solution, washing was carried out once with PBS.
2.2 150 μl/well of a blocking buffer (1% BSA in PBS) were incubated on the plates at room temperature for 0.5 hours. After removing the blocking buffer, washing was carried out once with PBS.
2.3 100 μl per well of a cell culture supernatant of transfected COS cells were incubated on the plates at room temperature for 1.5 hours. The COS cells were transfected with a plasmid which codes for the three N-terminal immunoglobulin-like domains of VCAM-1, coupled to the Fc part of human IgG1 (hVCAM-1(1-3)-IgG). The content of hVCAM-1 (1-3)-IgG was about […]. After removing the culture supernatant, washing was carried out once with PBS.
2.4 The plates were incubated at room temperature for 20 minutes with […] of Fc receptor blocking buffer (1 mg/ml of γ-globulin, 100 mM NaCl, 100 μM MgCl2, 100 μM MnCl2, 100 μM CaCl2, 1 mg/ml BSA in 50 mM HEPES, pH 7.5). After removing the Fc receptor blocking buffer, washing was carried out once with PBS.
2.5 20 μl of binding buffer (100 mM NaCl, 100 μM MgCl2, 100 μM MgCl2, 100 μM CaCl2, 1 mg/ml BSA in 50 mM HEPES, pH 7.5), were initially introduced, the substances to be tested were added in 10 μl of binding buffer and the mixture was incubated for 20 minutes. As controls, antibodies against VCAM-1 (BBT, No. BBA6) and against VLA-4
(Immunotech, No. 0764) were used.
2.6 U937 cells were incubated in Fc receptor blocking buffer for 20 minutes and then pipetted in at a concentration of 1×10^6/ml and in an amount of 100 μl per well ([…]).
2.7 The plates were slowly immersed at an angle of 45° in stop buffer (100 mM NaCl, 100 μM MgCl2, 100 μM MnCl2, 100 μM CaCl2 in 25 mM Tris, pH 7.5) and shaken off. The process was repeated.
2.8 50 μl/well of a dye solution (16.7 μg/ml of Hoechst dye 33258, 4% formaldehyde, 0.5% Triton X-100 in PBS) were then incubated on the plates for 15 minutes.
2.9 The plates were shaken off and slowly immersed at an angle of 45° in stop buffer (100 mM NaCl, 100 μM MgCl2, 100 μM MnCl2, 100 μM CaCl2 in 25 mM Tris, pH 7.5). The process was repeated. […]
As a reminder, the IC50 is the concentration needed to halve the response being measured. The low end stands for higher potency, the high end for lower potency. For `N=C(N)c1ccc(C2(Cc3ccccc3)C(=O)N(CC(=O)N[C@@H](CC(=O)O)C(=O)N[C@H](C(=O)O)c3ccccc3)C(=O)N2Cc2ccccc2)cc1` (stereo partly drawn) [Example 20, ((R,S)-4-(4-(Amino-imino-methyl)phenyl)-3,4-dibenzyl-2,5-dioxo-imidazolidin-1-yl)acetyl-L-aspartyl-L-phenylglycine], the IC50 was determined as 2 µM.

`CC1(c2ccc(C(=N)N)cc2)C(=O)N(CC(=O)N[C@@H](CC(=O)O)C(=O)N[C@H](C(=O)O)c2ccccc2)C(=O)N1Cc1ccc(C(F)(F)F)cc1` (mixture of isomers) [Example 15, ((R,S)-4-(4-(Amino-imino-methyl)phenyl)-3-(4-trifluoromethylbenzyl)-4-methyl-2,5-dioxoimidazolidin-1-yl)acetyl-L-aspartyl-L-phenylglycine] displayed an IC50 of 32 µM.

On to `CC1(c2ccc(C(=N)N)cc2)C(=O)N(CC(=O)N[C@@H](CC(=O)O)C(=O)N[C@H](C(=O)O)c2ccccc2)C(=O)N1Cc1ccccc1` (stereo partly drawn) [Example 4, ((R,S)-4-(4-(Amino-imino-methyl)phenyl)-3-benzyl-4-methyl-2,5-dioxoimidazolidin-1-yl)acetyl-L-aspartyl-L-phenylglycine], for which the IC50 amounted to 1.1 µM.

Compound `CC1(c2ccc(C(=N)N)cc2)NC(=O)N(CC(=O)N[C@@H](CC(=O)O)C(=O)N[C@H](C(=O)O)c2ccccc2)C1=O` (stereo partly drawn) [Example 1, ((R,S)-4-(4-(Amino-imino-methyl)phenyl)-4-methyl-2,5-dioxoimidazolidin-1-yl)acetyl-L-aspartyl-L-phenylglycine] registered an IC50 of 140 µM.

Compound `CC1(c2ccc(C(=N)N)cc2)C(=O)N(CC(=O)N[C@@H](CC(=O)O)C(=O)N[C@H](C(=O)O)c2ccccc2)C(=O)N1Cc1ccc(-c2ccccc2)cc1` (mixture of isomers) [Example 14, ((R,S)-4-(4-(Amino-imino-methyl)phenyl)-3-((4-biphenylyl)methyl)-4-methyl-2,5-dioxoimidazolidin-1-yl)acetyl-L-aspartyl-L-phenylglycine] came in with an IC50 of 0.25 µM.

`CC1(c2ccc(C(=N)N)cc2)C(=O)N(CC(=O)NC[C@H](NC(=O)OCc2ccc(C(F)(F)F)cc2)C(=O)O)C(=O)N1Cc1ccccc1` (stereo partly shown) [Example 67] displayed an IC50 of 2.25 µM.

As for “((S)-4-(3-Guanidinopropyl)-3-benzyl-2,5-dioxoimidazolidin-1-yl)acetyl-D-glutamyl-L-phenylglycine-L-tyrosine hydrochloride [Example 40]”, the IC50 is 27 µM.

In turn, `C[C@]1(c2ccc(C(=N)N)cc2)C(=O)N(CC(=O)N[C@@H](CC(=O)O)C(=O)N[C@H](C(=O)O)c2ccccc2)C(=O)N1Cc1ccccc1` [Example 63] came in with an IC50 of 0.22 µM.

As for `CC1(c2ccc(C(=N)N)cc2)C(=O)N(CC(=O)NCCC(=O)O)C(=O)N1Cc1ccccc1` (racemic) [Example 34, 3-(((R,S)-4-(4-(Amino-imino-methyl)phenyl)-3-benzyl-4-methyl-2,5-dioxoimidazolidin-1-yl)acetylamino)propionic acid hydrochloride], the IC50 worked out at 175 µM.

As to `CC1(Cc2ccc(NC(=N)N)cc2)C(=O)N(CC(=O)N[C@@H](CC(=O)O)C(=O)N[C@H](C(=O)O)c2ccccc2)C(=O)N1Cc1ccccc1` (stereo partly drawn) [Example 73, ((R,S)-4-(4-Guanidinobenzyl)-3-benzyl-4-methyl-2,5-dioxoimidazolidin-1-yl)acetyl-L-aspartyl-L-phenylglycine], the IC50 stood at 125 µM.

For the compound `CC1(c2ccc(CNC(=N)N)cc2)C(=O)N(CC(=O)N[C@@H](CC(=O)O)C(=O)N[C@H](C(=O)O)c2ccccc2)C(=O)N1Cc1ccccc1` (stereo partly drawn) [Example 69, ((R,S)-4-(4-Guanidinomethylphenyl)-3-benzyl-4-methyl-2,5-dioxo-imidazolidin-1-yl)acetyl-L-aspartyl-L-phenylglycine], the IC50 came to 4.5 µM.

As for `C[C@@]1(c2ccc(C(=N)N)cc2)C(=O)N(CC(=O)N[C@@H](CC(=O)O)C(=O)N[C@H](C(=O)O)c2ccccc2)C(=O)N1Cc1ccc2ccccc2c1` [Example 9, ((R,S)-4-(4-(Amino-imino-methyl)phenyl)-3-((2-naphthyl)methyl)-4-methyl-2,5-dioxoimidazolidin-1-yl)acetyl-L-aspartyl-L-phenylglycine], half-maximal inhibition (IC50) required 0.5 µM.

Compound `NCCC[C@H]1C(=O)N(CC(=O)N[C@@H](CC(=O)O)C(=O)N[C@H](C(=O)O)c2ccccc2)C(=O)N1Cc1ccccc1` [Example 37, ((S)-4-(3-Aminopropyl)-3-benzyl-2,5-dioxoimidazolidin-1-yl)acetyl-L-aspartyl-L-phenylglycine] returned an IC50 of 200 µM.

`C[C@]1(c2ccc(C(=N)N)cc2)C(=O)N(CC(=O)N[C@@H](CC(=O)O)C(=O)N[C@H](C(=O)O)c2ccccc2)C(=O)N1Cc1ccc2ccccc2c1` [Example 41, ((S)-4-(4-(Amino-imino-methyl)phenyl)-3-((2-naphthyl)methyl)-4-methyl-2,5-dioxoimidazolidin-1-yl)acetyl-L-aspartyl-L-phenylglycine] registered a half-inhibitory concentration (IC50) of 0.28 µM.

In turn, `N=C(N)NCCC[C@H]1C(=O)N(CC(=O)N[C@@H](CC(=O)O)C(=O)N[C@H](C(=O)O)c2ccccc2)C(=O)N1Cc1ccccc1` [Example 38, ((S)-4-(3-Guanidinopropyl)-3-benzyl-2,5-dioxoimidazolidin-1-yl)acetyl-L-aspartyl-L-phenylglycine] displayed an IC50 of 45 µM.

With `CN1C(=O)N(CC(=O)N[C@@H](CC(=O)O)C(=O)N[C@H](C(=O)O)c2ccccc2)C(=O)C1(C)c1ccc(C(=N)N)cc1` (stereo partly drawn) [Example 2, ((R,S)-4-(4-(Amino-imino-methyl)phenyl)-3,4-dimethyl-2,5-dioxo-imidazolidin-1-yl)acetyl-L-aspartyl-L-phenylglycine], the IC50 was 15 µM.

For `CC1(c2ccc(C(=N)N)cc2)C(=O)N(CC(=O)N[C@@H](CC(=O)O)C(=O)N[C@H](C(=O)O)c2ccccc2)C(=O)N1Cc1cccc2ccccc12` (mixture of isomers) [Example 13, ((R,S)-4-(4-(Amino-imino-methyl)phenyl)-3-((1-naphthyl)methyl)-4-methyl-2,5-dioxoimidazolidin-1-yl)acetyl-L-aspartyl-L-phenylglycine], the IC50 amounted to 3.7 µM.

Consider `CC(C)(C)c1ccc(CN2C(=O)N(CC(=O)N[C@@H](CC(=O)O)C(=O)N[C@H](C(=O)O)c3ccccc3)C(=O)C2(C)c2ccc(C(=N)N)cc2)cc1` (mixture of isomers) [Example 5, ((R,S)-4-(4-(Amino-imino-methyl)phenyl)-3-(4-tert-butyl-benzyl)-4-methyl-2,5-dioxoimidazolidin-1-yl)acetyl-L-aspartyl-L-phenylglycine], for which it took 15 µM to reach half-maximal inhibition (IC50).

As to `CC1(c2ccc(C(=N)N)cc2)C(=O)N(CC(=O)N[C@@H](CC(=O)O)C(=O)N[C@H](C(=O)O)c2ccccc2)C(=O)N1Cc1ccccc1-c1ccccc1` (mixture of isomers) [Example 11, ((R,S)-4-(4-(Amino-imino-methyl)phenyl)-3-((2-biphenylyl)methyl)-4-methyl-2,5-dioxoimidazolidin-1-yl)acetyl-L-aspartyl-L-phenylglycine], the IC50 turned out to be 62 µM.

These data come from patent publication US20040220148A1, “5-Membered ring heterocycles as inhibitors of leucocyte adhesion and as VLA-4 antagonists” (Aventis Pharma Deutschland GmbH, priority 1996, published 2004).
